{"source": "PubChem BioAssay (NCI)", "test_in_all_cases": "NCI tumour cell line growth inhibition, 48 h", "key": {"[1]": {"tested_on": "DMS 273 small cell lung"}, "[2]": {"tested_on": "SF-539 CNS"}, "[3]": {"tested_on": "K-562 leukemia"}, "[4]": {"tested_on": "TK-10 renal"}, "[5]": {"tested_on": "KM12 colon"}, "[6]": {"tested_on": "SW-620 colon"}, "[7]": {"tested_on": "EKVX NSCLC"}, "[8]": {"tested_on": "UACC-257 melanoma"}, "[9]": {"tested_on": "SN12C renal"}, "[10]": {"tested_on": "SNB-78 CNS"}, "[11]": {"tested_on": "HCC-2998 colon"}, "[12]": {"tested_on": "COLO 205 colon"}, "[13]": {"tested_on": "HCT-116 colon"}, "[14]": {"tested_on": "XF 498 CNS"}, "[15]": {"tested_on": "SR leukemia"}, "[16]": {"tested_on": "SK-OV-3 ovarian"}, "[17]": {"tested_on": "OVCAR-5 ovarian"}, "[18]": {"tested_on": "CAKI-1 renal"}, "[19]": {"tested_on": "KM20L2 colon"}, "[20]": {"tested_on": "IGROV1 ovarian"}, "[21]": {"tested_on": "RXF 393 renal"}, "[22]": {"tested_on": "OVCAR-8 ovarian"}, "[23]": {"tested_on": "UO-31 renal"}, "[24]": {"tested_on": "NCI-H23 lung"}, "[25]": {"tested_on": "HL-60(TB) leukemia"}, "[26]": {"tested_on": "M14 melanoma"}, "[27]": {"tested_on": "DMS 114 small cell lung"}, "[28]": {"tested_on": "SK-MEL-28 melanoma"}, "[29]": {"tested_on": "HCT-15 colon"}, "[30]": {"tested_on": "U251 CNS"}, "[31]": {"tested_on": "SF-295 CNS"}, "[32]": {"tested_on": "786-0 renal"}, "[33]": {"tested_on": "OVCAR-4 ovarian"}, "[34]": {"tested_on": "MOLT-4 leukemia"}, "[35]": {"tested_on": "OVCAR-3 ovarian"}, "[36]": {"tested_on": "MALME-3M melanoma"}, "[37]": {"tested_on": "HT29 colon"}, "[38]": {"tested_on": "LOX IMVI melanoma"}, "[39]": {"tested_on": "A549 NSCLC"}, "[40]": {"tested_on": "M19-MEL melanoma"}, "[41]": {"tested_on": "HOP-62 NSCLC"}, "[42]": {"tested_on": "SF-268 CNS"}, "[43]": {"tested_on": "A498 renal"}, "[44]": {"tested_on": "SNB-75 CNS"}, "[45]": {"tested_on": "RPMI-8226 leukemia"}, "[46]": {"tested_on": "SK-MEL-2 melanoma"}, "[47]": {"tested_on": "SK-MEL-5 melanoma"}, "[48]": {"tested_on": "SNB-19 CNS"}, "[49]": {"tested_on": "NCI-H460 lung"}, "[50]": {"tested_on": "NCI-H226 lung"}, "[51]": {"tested_on": "ACHN renal"}, "[52]": {"tested_on": "CCRF-CEM leukemia"}, "[53]": {"tested_on": "NCI-H522 lung"}, "[54]": {"tested_on": "HOP-92 NSCLC"}, "[55]": {"tested_on": "UACC-62 melanoma"}, "[56]": {"tested_on": "DLD-1 colon"}, "[57]": {"tested_on": "LXFL 529 NSCLC"}}, "note": "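These data come from cells grown in 96-well plates and exposed to compound for 48 hours at five concentrations. TGI is the concentration that stops growth completely.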"}
{"smiles": "FC(F)(F)c1cccc(C=NC23CC4CC(CC(C4)C2)C3)c1", "values": [{"measurement": "TGI", "setting": "[1]", "value": "> 100", "unit": "µM"}, {"measurement": "TGI", "setting": "[2]", "value": "> 100", "unit": "µM"}, {"measurement": "TGI", "setting": "[3]", "value": "> 100", "unit": "µM"}, {"measurement": "TGI", "setting": "[4]", "value": "> 100", "unit": "µM"}, {"measurement": "TGI", "setting": "[5]", "value": "> 100", "unit": "µM"}, {"measurement": "TGI", "setting": "[6]", "value": "> 100", "unit": "µM"}, {"measurement": "TGI", "setting": "[7]", "value": "> 100", "unit": "µM"}, {"measurement": "TGI", "setting": "[8]", "value": "> 100", "unit": "µM"}, {"measurement": "TGI", "setting": "[9]", "value": "> 100", "unit": "µM"}, {"measurement": "TGI", "setting": "[10]", "value": "> 100", "unit": "µM"}, {"measurement": "TGI", "setting": "[11]", "value": "> 100", "unit": "µM"}, {"measurement": "TGI", "setting": "[12]", "value": "> 100", "unit": "µM"}, {"measurement": "TGI", "setting": "[13]", "value": "> 100", "unit": "µM"}, {"measurement": "TGI", "setting": "[14]", "value": "> 100", "unit": "µM"}, {"measurement": "TGI", "setting": "[15]", "value": "> 100", "unit": "µM"}, {"measurement": "TGI", "setting": "[16]", "value": "> 100", "unit": "µM"}, {"measurement": "TGI", "setting": "[17]", "value": "> 100", "unit": "µM"}, {"measurement": "TGI", "setting": "[18]", "value": "> 100", "unit": "µM"}, {"measurement": "TGI", "setting": "[19]", "value": "> 100", "unit": "µM"}, {"measurement": "TGI", "setting": "[20]", "value": "> 100", "unit": "µM"}, {"measurement": "TGI", "setting": "[21]", "value": "> 100", "unit": "µM"}, {"measurement": "TGI", "setting": "[22]", "value": "> 100", "unit": "µM"}, {"measurement": "TGI", "setting": "[23]", "value": "> 100", "unit": "µM"}, {"measurement": "TGI", "setting": "[24]", "value": "> 100", "unit": "µM"}, {"measurement": "TGI", "setting": "[25]", "value": "> 100", "unit": "µM"}, {"measurement": "TGI", "setting": "[26]", "value": "> 100", "unit": "µM"}, {"measurement": "TGI", "setting": "[27]", "value": "> 100", "unit": "µM"}, {"measurement": "TGI", "setting": "[28]", "value": "> 100", "unit": "µM"}, {"measurement": "TGI", "setting": "[29]", "value": "> 100", "unit": "µM"}, {"measurement": "TGI", "setting": "[30]", "value": "> 100", "unit": "µM"}, {"measurement": "TGI", "setting": "[31]", "value": "> 100", "unit": "µM"}, {"measurement": "TGI", "setting": "[32]", "value": "> 100", "unit": "µM"}, {"measurement": "TGI", "setting": "[33]", "value": "> 100", "unit": "µM"}, {"measurement": "TGI", "setting": "[34]", "value": "> 100", "unit": "µM"}, {"measurement": "TGI", "setting": "[35]", "value": "> 100", "unit": "µM"}, {"measurement": "TGI", "setting": "[36]", "value": "> 100", "unit": "µM"}, {"measurement": "TGI", "setting": "[37]", "value": "> 100", "unit": "µM"}, {"measurement": "TGI", "setting": "[38]", "value": "> 100", "unit": "µM"}, {"measurement": "TGI", "setting": "[39]", "value": "> 100", "unit": "µM"}, {"measurement": "TGI", "setting": "[40]", "value": "> 100", "unit": "µM"}, {"measurement": "TGI", "setting": "[41]", "value": "> 100", "unit": "µM"}, {"measurement": "TGI", "setting": "[42]", "value": "> 100", "unit": "µM"}, {"measurement": "TGI", "setting": "[43]", "value": "> 100", "unit": "µM"}, {"measurement": "TGI", "setting": "[44]", "value": "> 100", "unit": "µM"}, {"measurement": "TGI", "setting": "[45]", "value": "> 100", "unit": "µM"}, {"measurement": "TGI", "setting": "[46]", "value": "> 100", "unit": "µM"}, {"measurement": "TGI", "setting": "[47]", "value": "> 100", "unit": "µM"}, {"measurement": "TGI", "setting": "[48]", "value": "> 100", "unit": "µM"}, {"measurement": "TGI", "setting": "[49]", "value": "> 100", "unit": "µM"}, {"measurement": "TGI", "setting": "[50]", "value": "> 100", "unit": "µM"}, {"measurement": "TGI", "setting": "[51]", "value": "> 100", "unit": "µM"}]}
{"smiles": "O=S1(=O)OCCOS(=O)(=O)C1(I)I", "values": [{"measurement": "TGI", "setting": "[1]", "value": 47.3, "unit": "µM"}, {"measurement": "TGI", "setting": "[2]", "value": 40.1, "unit": "µM"}, {"measurement": "TGI", "setting": "[3]", "value": 74.6, "unit": "µM"}, {"measurement": "TGI", "setting": "[4]", "value": 70.3, "unit": "µM"}, {"measurement": "TGI", "setting": "[5]", "value": 40.8, "unit": "µM"}, {"measurement": "TGI", "setting": "[6]", "value": 39.3, "unit": "µM"}, {"measurement": "TGI", "setting": "[7]", "value": 59, "unit": "µM"}, {"measurement": "TGI", "setting": "[8]", "value": 46.3, "unit": "µM"}, {"measurement": "TGI", "setting": "[9]", "value": 38.2, "unit": "µM"}, {"measurement": "TGI", "setting": "[52]", "value": 35.6, "unit": "µM"}, {"measurement": "TGI", "setting": "[10]", "value": 86.4, "unit": "µM"}, {"measurement": "TGI", "setting": "[11]", "value": 35.2, "unit": "µM"}, {"measurement": "TGI", "setting": "[12]", "value": 37.8, "unit": "µM"}, {"measurement": "TGI", "setting": "[13]", "value": 29.9, "unit": "µM"}, {"measurement": "TGI", "setting": "[14]", "value": 37.5, "unit": "µM"}, {"measurement": "TGI", "setting": "[15]", "value": 49.1, "unit": "µM"}, {"measurement": "TGI", "setting": "[16]", "value": 47.2, "unit": "µM"}, {"measurement": "TGI", "setting": "[18]", "value": 35.7, "unit": "µM"}, {"measurement": "TGI", "setting": "[20]", "value": 63.8, "unit": "µM"}, {"measurement": "TGI", "setting": "[22]", "value": 59.5, "unit": "µM"}, {"measurement": "TGI", "setting": "[53]", "value": 45.2, "unit": "µM"}, {"measurement": "TGI", "setting": "[23]", "value": 33.3, "unit": "µM"}, {"measurement": "TGI", "setting": "[24]", "value": 27.9, "unit": "µM"}, {"measurement": "TGI", "setting": "[25]", "value": 68.3, "unit": "µM"}, {"measurement": "TGI", "setting": "[26]", "value": 50.7, "unit": "µM"}, {"measurement": "TGI", "setting": "[27]", "value": 43.9, "unit": "µM"}, {"measurement": "TGI", "setting": "[28]", "value": 55.2, "unit": "µM"}, {"measurement": "TGI", "setting": "[54]", "value": 29.8, "unit": "µM"}, {"measurement": "TGI", "setting": "[31]", "value": 90.8, "unit": "µM"}, {"measurement": "TGI", "setting": "[32]", "value": 35, "unit": "µM"}, {"measurement": "TGI", "setting": "[33]", "value": 48.9, "unit": "µM"}, {"measurement": "TGI", "setting": "[34]", "value": 56.9, "unit": "µM"}, {"measurement": "TGI", "setting": "[35]", "value": 73.8, "unit": "µM"}, {"measurement": "TGI", "setting": "[55]", "value": 30.3, "unit": "µM"}, {"measurement": "TGI", "setting": "[36]", "value": 37.6, "unit": "µM"}, {"measurement": "TGI", "setting": "[37]", "value": 69.4, "unit": "µM"}, {"measurement": "TGI", "setting": "[56]", "value": 35.8, "unit": "µM"}, {"measurement": "TGI", "setting": "[38]", "value": 30.5, "unit": "µM"}, {"measurement": "TGI", "setting": "[39]", "value": 71.1, "unit": "µM"}, {"measurement": "TGI", "setting": "[40]", "value": 53.8, "unit": "µM"}, {"measurement": "TGI", "setting": "[41]", "value": 38.9, "unit": "µM"}, {"measurement": "TGI", "setting": "[42]", "value": 74.7, "unit": "µM"}, {"measurement": "TGI", "setting": "[43]", "value": 30.3, "unit": "µM"}, {"measurement": "TGI", "setting": "[57]", "value": 27.3, "unit": "µM"}, {"measurement": "TGI", "setting": "[44]", "value": 48.7, "unit": "µM"}, {"measurement": "TGI", "setting": "[45]", "value": 36.8, "unit": "µM"}, {"measurement": "TGI", "setting": "[46]", "value": 39.5, "unit": "µM"}, {"measurement": "TGI", "setting": "[47]", "value": 30, "unit": "µM"}, {"measurement": "TGI", "setting": "[48]", "value": 55.3, "unit": "µM"}, {"measurement": "TGI", "setting": "[50]", "value": 29.7, "unit": "µM"}]}
